A short description of this experiment: Inhibition of sodium hydrogen exchanger-mediated platelet swelling in human. As to conditions: for IC50: Homo sapiens.

For the molecule `COc1ccnc2c1/C(=N/N=C(N)N)CC(c1ccccc1Cl)C2` (configuration not stated), the IC50 (read-out: IC50) is below 50 nM and the IC50 (read-out: pIC50 (converted)) is 50 nM.
For `N=C(N)N/N=c1\cc(-c2ccccc2)oc2ccccc12`, the IC50 (read-out: IC50) was 6400 nM and the IC50 (read-out: pIC50 (converted)) is 6400 nM.
Regarding `Cc1ccnc2c1/C(=N/N=C(N)N)CC(c1cc(Cl)ccc1Cl)C2` (configuration not stated), the IC50 (read-out: pIC50 (converted)) was 57.9 nM.
As to `Cc1ccnc2c1/C(=N/N=C(N)N)CC(c1ccccc1F)C2` (configuration not stated), the IC50 (read-out: IC50) turned out to be 32 nM and the IC50 (read-out: pIC50 (converted)) was 32 nM.
`Cc1coc2c1/C(=N/N=C(N)N)CC(c1ccccc1Cl)C2` (configuration not stated): the IC50 (read-out: pIC50 (converted)) is 82 nM.
For `Cc1[nH]nc2c1/C(=N/N=C(N)N)CC(c1ccccc1Cl)C2` (configuration not stated), the IC50 (read-out: pIC50 (converted)) was 55 nM.
Take `N=C(N)N/N=C1\CC(c2ccccc2)Cc2ncccc21` (configuration not stated): the IC50 reads like this: (read-out: IC50) 410 nM; (read-out: pIC50 (converted)) 410 nM.
On to `Cc1ccnc2c1/C(=N/N=C(N)N)CC(c1cc(F)ccc1F)C2` (configuration not stated), for which the IC50 (read-out: pIC50 (converted)) was 39 nM.
As for `COc1ccc(F)cc1C1C/C(=N\N=C(N)N)c2c(C)ccnc2C1` (configuration not stated), the IC50 (read-out: pIC50 (converted)) was 32 nM.
With `Cc1ccnc2c1/C(=N/N=C(N)N)CC(c1ccccc1Cl)C2` (configuration not stated), the IC50 is, setting by setting: (read-out: IC50) below 50 nM; (read-out: pIC50 (converted)) 40 nM.
`Cc1ccnc2c1/C(=N/N=C(N)N)CC(c1ccccc1)C2` (configuration not stated): the IC50 by setting is: (read-out: IC50) below 50 nM; (read-out: pIC50 (converted)) 91 nM.
In the case of `Cc1ccnc2c1/C(=N/N=C(N)N)CC(c1cc(F)ccc1Cl)C2` (configuration not stated), affinity was put at a Ki of 19 nM. Further, the IC50 (read-out: pIC50 (converted)) is 19 nM.
Take `Cc1ncnc2c1/C(=N/N=C(N)N)CC(c1ccccc1Cl)C2` (configuration not stated): where the note is “read-out: pIC50 (converted)”, the IC50 was 240 nM.
For the molecule `Cc1ccnc2c1/C(=N/N=C(N)N)CC(c1ccc(Cl)cc1Cl)C2` (configuration not stated), the IC50 (read-out: pIC50 (converted)) was 340 nM.
Consider `Cc1cc(C)c2c(n1)CC(c1ccccc1)C/C2=N\N=C(N)N` (configuration not stated), for which the IC50 is, setting by setting: (read-out: IC50) below 50 nM; (read-out: pIC50 (converted)) 180 nM.
As for `Cc1ccnc2c1/C(=N/N=C(N)N)CC(c1sc(Cl)cc1Cl)C2` (configuration not stated), the IC50 (read-out: pIC50 (converted)) was 49 nM.
For `Cc1ccccc1C1C/C(=N\N=C(N)N)c2c(C)ccnc2C1` (configuration not stated), the IC50 runs as follows: (read-out: IC50) 57 nM; (read-out: pIC50 (converted)) 57 nM.
`Cc1csc2c1/C(=N/N=C(N)N)CC(c1ccccc1Cl)C2` (configuration not stated): under “read-out: pIC50 (converted)”, the IC50 was 220 nM.
Regarding `Cc1ccnc2c1/C(=N/N=C(N)N)CC(c1sccc1Cl)C2` (configuration not stated), under “read-out: pIC50 (converted)”, the IC50 was 19 nM.
Same read-out and setting: the result for `Cc1ccnc2c1/C(=N/N=C(N)N)CC(c1cccs1)C2` (configuration not stated) reads 47 nM.
Regarding `Cc1ccc2c(n1)CC(c1ccccc1)C/C2=N\N=C(N)N` (configuration not stated), the IC50 is, setting by setting: (read-out: IC50) 2800 nM; (read-out: pIC50 (converted)) 2800 nM.
Consider `Cc1cnnc2c1/C(=N/N=C(N)N)CC(c1ccccc1Cl)C2` (configuration not stated), for which, under “read-out: pIC50 (converted)”, the IC50 is 26 nM.
For `Cc1ccccc1C1C/C(=N\N=C(N)N)c2c(C)c[nH]c2C1` (configuration not stated), for the setting “read-out: pIC50 (converted)”, the IC50 was 34 nM.
Same read-out and setting: the result for `N=C(N)N/N=C1\CC(c2ccccc2)Cc2[nH]ccc21` (configuration not stated) reads 3500 nM.
Turning to `Cc1ccnc2c1/C(=N/N=C(N)N)CC(c1cccc(Cl)c1)C2` (configuration not stated), the IC50 runs as follows: (read-out: IC50) below 50 nM; (read-out: pIC50 (converted)) 61 nM.
For the molecule `Cc1ccnc2c1/C(=N/N=C(N)N)CC(c1ccsc1Cl)C2` (configuration not stated), the IC50 (read-out: pIC50 (converted)) was 22 nM.
On the same count and under the same terms, the result for `Cc1ccnc2c1/C(=N/N=C(N)N)CC(c1ccco1)C2` (configuration not stated) reads 110 nM; that for `Cc1ccnc2c1/C(=N/N=C(N)N)CC(c1ccsc1)C2` (configuration not stated), 30 nM.
Consider `N=C(N)N/N=C1\CC(c2ccccc2)Oc2ccccc21` (configuration not stated), for which the IC50 was at most 6400 nM (read-out: IC50) and 3300 nM (read-out: pIC50 (converted)).
In the case of `Cc1ccnc2c1/C(=N/N=C(N)N)CC(c1ccccc1Br)C2` (configuration not stated), the IC50 is 56 nM (read-out: IC50) and 56 nM (read-out: pIC50 (converted)).
Turning to `Cc1cccc2c1/C(=N/N=C(N)N)CC(c1ccccc1Cl)O2` (configuration not stated), the IC50 (read-out: pIC50 (converted)) is 200 nM.
On to `Cc1ccnc2c1/C(=N/N=C(N)N)CC(c1ccc(Cl)cc1)C2` (configuration not stated), for which the IC50 is below 50 nM (read-out: IC50) and 550 nM (read-out: pIC50 (converted)).
Consider `Cc1ccnc2c1/C(=N/N=C(N)N)CC(c1cccc(Cl)c1Cl)C2` (configuration not stated), for which, where the note is “read-out: pIC50 (converted)”, the IC50 was 88.9 nM.
With `COc1ccccc1C1C/C(=N\N=C(N)N)c2c(C)ccnc2C1` (configuration not stated), the IC50 is 100 nM (read-out: IC50) and 100 nM (read-out: pIC50 (converted)).
Take `Cc1ccc(F)cc1C1C/C(=N\N=C(N)N)c2c(C)ccnc2C1` (configuration not stated): for the setting “read-out: pIC50 (converted)”, the IC50 is 37 nM.
The same measure, in the same setting: the result for `Cc1ccnc2c1/C(=N/N=C(N)N)CC(c1cc(Cl)sc1Cl)C2` (configuration not stated) reads 19 nM; that for `Cc1ccnc2oc(-c3ccccc3Cl)c/c(=N\NC(=N)N)c12`, 360 nM.

As a reminder, the Ki is a dissociation constant, usually derived from enzyme kinetics or from competition with a known ligand.
